Experimental data taken from patent US20240189373A1, “BACTERIOPHAGE COMPOSITIONS FOR TREATING STAP[…]” (priority 2020, published 2024).

Tested on: S. aureus strains
Assay: microbe, parasite or virus in culture
Assay type: cell-based
Experimental: Grey boxes indicate lines on graph depicted in FIG. 5B. […] Vancomycin, 16 μg/mL; AP-SA02, 0.1 pg/mL.
FIG. 6A is data showing bacterial growth measured by turbidity (absorbance at 600 nm) in the presence of AP-SA02 and vancomycin in a checkerboard assay. Grey boxes show lines on graph depicted in FIG. 6B. […] Vancomycin, 2 μg/mL.
Standard therapy for subjects with a S. aureus infection includes vancomycin and daptomycin. Since subjects who receive AP-SA02 are likely to be on these therapies, the effect of AP-SA02 on these antibiotics and vice versa was assessed. Using the standard checkerboard assay, the minimum inhibitory concentration of each antimicrobial alone or in combination with each other, was used to calculate whether two antimicrobials are synergistic, antagonistic, or indifferent (Table 3).

SMILES: CN[C@H](CC(C)C)C(=O)N[C@H]1C(=O)N[C@@H](CC(N)=O)C(=O)N[C@H]2C(=O)N[C@H]3C(=O)N[C@H](C(=O)N[C@H](C(=O)O)c4cc(O)cc(O)c4-c4cc3ccc4O)[C@H](O)c3ccc(c(Cl)c3)Oc3cc2cc(c3O[C@@H]2O[C@H](CO)[C@@H](O)[C@H](O)[C@H]2O[C@H]2C[C@](C)(N)[C@H](O)[C@H](C)O2)Oc2ccc(cc2Cl)[C@H]1O [vancomycin]
- MIC (Staphylococcus aureus): > 16 mg/L
- breakpoint for vancomycin in the presence of phage (changed from resistant or intermediate to the sensitive range): 0.5 to 2 µg/mL
